# Data taken from patent US12606797B2, “Methods of detection of mechanically-activated platelet activation and uses thereof” (Arizona Board of Regents on Behalf of the University of …, priority 2018, dated 2026).
# Key:
# [1] = tested on: human platelets (GFP, PRP); test: Platelet aggregation induced with biochemical agonists (optical aggregometer); assay type: cell-based; details: 1 mM CaCl2, 5 min, 37° C.; for ability to induce platelet aggregation in GFP: gel-filtered platelets, 32 μM TRAP6, 1 U/mL thrombin, 100 μg/mL collagen, 1 mM arachidonic acid
# Description: Platelet aggregation was assessed in PRP or GFP samples employing dual channel optical aggregometer (Model 560-VS, Chrono-Log Corporation, Havertown, PA). […] Platelet count in aggregation mixture was adjusted to 150-200×10^3 plt/μL (in GFP) and to 300-350×10^3 plt/μL (in PRP), final CaCl2 concentration was 1 mM. Aggregation was started by adding mentioned agonists and running for 5 minutes at 37° C. with 1000 rpm stirring. The changes in relative light transmittance were recorded, and arbitrary values for each aggregation curve were calculated with Aggrolink software (Chrono-Log Corporation, Havertown, PA).
# (§1) To define the molecular signature of SMPA, biochemical versus mechanical platelet activation by uniform shear stress applied in the hemodynamic shearing device (HSD) was compared. […] Mechanical platelet activation was obtained via GFP exposure to uniform continuous shear in HSD as described above in “Shear-mediated platelet activation”. Physiologically relevant shear stress levels (30 and 50 dynes/cm^2) close to those found in blood stream vs. sub-pathological shear conditions (70 dynes/cm^2) existing within MCS were examined. Initially, the P-selectin exposure, as a known marker of platelet activation and α-granule secretion, was detected employing mono immunostaining and quantified by flow cytometry. Those cells showing high fluorescence intensity (≥3000 AU) were gated as P-selectin positive platelets and marked as sub-population P6 (FIGS. 2A-2G).
# [2] = tested on: P-selectin exposure on gel-filtered platelets; test: Flow cytometry of platelet P-selectin exposure (anti-CD62P-APC) after biochemical activation; assay type: cell-based, human; details: 2.5 mM CaCl2, room temperature; for number of CD62P-positive cells, % of whole platelet population: GFP 2×10^4 platelets/μL, 10 uM ADP, 10 μg/mL epinephrine, 1 mM arachidonic acid, gate ≥3000 AU; for P-selectin exposure (in words): GFP, 32 μM TRAP6, 1 U/mL thrombin, 100 μg/mL collagen
# Description: (§2) To induce biochemical activation, GFP (2×10^4 platelets/μL, final volume 100 μL) were treated with biochemical agonists mentioned above in presence of 2.5 mM CaCl2), mixed gently and incubated undisturbed for 15 minutes at room temperature. Then APC-conjugated anti-CD62P (clone Psel.KO2.3, eBioscience, San Diego, CA) and FITC-labeled annexin V (eBioscience, San Diego, CA) were added to indicate platelet a-granule secretion and phosphatidylserine externalization (PSE) during platelet biochemical activation. Integrin GP αIIbβ3 activation was evaluated by double-staining technique. […] A pair of antibodies against αIIbβ3 was added simultaneously into a test tube containing activated platelet sample to identify the number of platelets exposing activated αIIbβ3 among all αIIbβ3-expressing platelet population. Cells were incubated with annexin V or antibodies for 30 minutes at room temperature in the dark, washed by centrifugation (5000 rpm, 5 min), resuspended in 1 ml of Ca-free 0.05 M phosphate buffer (pH-7.4) and transferred in polystyrene tube for flow cytometry. Flow cytometry analysis was performed within 15 minutes after sample preparation.
# (§3) Flow cytometry was performed on FACS Canto II (BD Biosciences, San Jose, CA) using the following configurations: HeNe red laser (633 nm) and 660/20 filter—for APC, solid state blue laser (488 nm) and 530/30 filter—for FITC-stained cell detection. Single platelets were distinguished from their aggregates and microparticles based on their characteristic forward versus side scatter. […] BD FACSDiva™ software was applied to analyze flow cytometry data statistics (percentage of marker-positive platelets among whole platelet population and their median fluorescence intensity).
# as §1
# [3] = tested on: integrin GPIIb/IIIa activation on gel-filtered platelets; test: Flow cytometry of integrin GPIIb/IIIa activation (anti-CD41/CD61-FITC PAC-1 and anti-CD41-APC double staining); assay type: cell-based, human; details: for number of platelets presenting activated GPIIb/IIIa (CD41/CD61-positive among CD41-positive) / elevation of number of platelets presenting activated GPIIb/IIIa as compared with intact platelets: GFP, 10 uM ADP, 1 U/mL thrombin; for number of platelets presenting activated GPIIb/IIIa (CD41/CD61-positive among CD41-positive): 2.5 mM CaCl2, gate ≥4000 AU, intact platelets 6.7±2.9%; for number of CD41/CD61-positive platelets following GFP stimulation (in words): 2.5 mM CaCl2, vs intact platelets
# Description: as §2, §3
# To assess the magnitude of integrin GPIIb/IIIa activation after platelet stimulation with constant shear or biochemical agonists, the number of whole GPIIb/IIIa-positive platelet population was compared with the number of those presenting activated form of the integrin on their membrane. For this purpose, double staining with APC-conjugated anti-CD41 and FITC-conjugated anti-CD41/CD61 was applied as describe in the methods described above. Among parental CD41-positive platelet population, CD41/CD61-positive cells were distinguished based on their FITC-fluorescence intensity level (≥4000 AU) and assumed as presenting activated form of integrin GPIIb/IIIa on their surface (FIGS. 4A-4G, sub-population P3).
# [4] = tested on: phosphatidylserine externalization on gel-filtered platelets; test: Annexin V binding assay of phosphatidylserine externalization (flow cytometry); assay type: cell-based, human; details: GFP, 2.5 mM CaCl2; for annexin V binding after platelet stimulation (in words): agonist taken alone
# Description: as §2, §3
# To detect phosphatidylserine exposure, an annexin V binding assay is extensively utilized. The principle of the assay is based on the high affinity binding of protein annexin V labeled with fluorescence dye to phosphatidylserine on platelet surface with the aid of Ca2+ ions (Demchenko, Cytotechnology, vol. 65, no. 2, pp. 157-72, March (2013)).
# [5] = tested on: procoagulant activity of gel-filtered platelets; test: Prothrombinase-based Platelet Activation State (PAS) assay, thrombin generation on platelet surface; assay type: cell-based, human; details: platelets 5×10^3 cells/μL, 200 nM acetylated prothrombin, 100 pM factor Xa, 37° C., 10 minutes
# From the text: PAS was quantified by chemically modified prothrombinase-based chromogenic assay developed by Jesty and Bluestein (Jesty & Bluestein, Anal. Biochem. (1999), Jesty et al., Platelets, vol. 14, no. 3, pp. 143-149, 2003). The assay measures the rate of acetylated thrombin generation from acetylated proenzyme cleavage by factor Xa in presence of activated platelets. […] Activated, but not resting, platelets present factor Va and negatively charged phospholipids (mostly phosphatidylserine) on their surface for prothrombinase complex formation and thrombin generation. Thus, the rate of enzymatic cleavage of chromogenic substrate Chromozym TH (Tosyl-Gly-Pro-Arg-4-nitranilide acetate, Roche Diagnostics GmbH, Mannheim, Germany) by acetylated thrombin reflects the value of initial activation state of the platelets tested (Jesty & Bluestein, Anal. Biochem. (1999), Rubenstein et al., Circulation, (2004)).
# Platelet samples preliminary stimulated with biochemical activators, shear or sonication (platelet count—5×10^3 cells/μL) were incubated with 200 nM acetylated prothrombin, 100 pM factor Xa (Enzyme Research Laboratories, South Bend, IN), 5 mM CaCl2) in a volume of 100 μL 20 mM HEPES, pH 7.4, containing 130 mM NaCl and 0.1% BSA at 37° C. for 10 minutes. Then, 10 μL of each timed sample was measured for thrombin activity in microplate wells, containing 0.3 mM Cromozyme TH, 3 mM EDTA in 20 mM HEPES, pH 7.4, containing 130 mM NaCl and 0.1% BSA. Kinetic change of absorbance (λ=405 nm) was measured for 7 minutes at room temperature using microplate reader Versa MAX (Molecular Devices Corp., Sunnyvale, CA). The value of PAS or initial rate of thrombin generation was calculated as a slope of kinetic curve (ΔA405/min) with SoftMax Pro6 Software.
# human platelets = details: not sensitive to cyclooxygenase inhibitors; cited from earlier work
Compound,"ability to induce platelet aggregation in PRP ([1]; platelet-rich plasma, 10 uM ADP, 10 μg/mL epinephrine)","number of CD62P-positive cells, % of whole platelet population [2] [%]",number of platelets presenting activated GPIIb/IIIa (CD41/CD61-positive among CD41-positive) [3] [%],elevation of number of platelets presenting activated GPIIb/IIIa as compared with intact platelets [3] [times],annexin V binding after platelet stimulation (in words) [4],"thrombin generation / amidolytic activity in presence of stimulated platelets (PAS assay, in words) [5]",ability to induce platelet aggregation in GFP [1],P-selectin exposure (in words) [2],number of CD41/CD61-positive platelets following GFP stimulation (in words) [3],"number of annexin V-positive platelets, % of whole platelet population ([4]; arachidonic acid 1 mM) [%]",AA concentration required for Ca^2+ influx (human platelets) [µM]
"Nc1ncnc2c1ncn2[C@@H]1O[C@H](COP(=O)(O)OP(=O)(O)O)[C@@H](O)[C@H]1O [ADP, Adenosine DiPhosphate]",induce platelet aggregation,46.8±3.9,28.0±8.9,4.2,No annexin V binding,no amidolytic activity was detected,–,–,–,–,–
thrombin,–,–,63.5±10.2,9.6,No annexin V binding,–,induce platelet aggregation,dramatic augmentation of P-selectin exposure,–,–,–
CCCCC/C=C\C/C=C\C/C=C\C/C=C\CCCC(=O)O [arachidonic acid],–,52.1±6.8,–,–,–,comparable with sonicated GFP sample,induce platelet aggregation,–,not significantly elevated,52.12±6.79,60
thrombin receptor activating peptide-6 [TRAP-6],–,–,–,–,No annexin V binding,no amidolytic activity was detected,induce platelet aggregation,dramatic augmentation of P-selectin exposure,not significantly elevated,–,–
collagen,–,–,–,–,No annexin V binding,no amidolytic activity was detected,induce platelet aggregation,failed to induce high P-selectin exposure,not significantly elevated,–,–
CNC[C@H](O)c1ccc(O)c(O)c1 [epinephrine],–,18.6±1.5,–,–,No annexin V binding,no amidolytic activity was detected,–,–,not significantly elevated,–,–
